Source: patent US9029337B2, “Modulation of factor 7 expression” (Isis Pharmaceuticals, Inc., priority 2007, dated 2015)
Strand notation (5' to 3'): a small letter for the sugar, then the base; units joined by * are phosphorothioate-linked, units joined directly phosphodiester-linked; [ ] holds rarer units or linkages, { } end groups; capitals alone tell only the bases. e = 2'-O-(2-methoxyethyl) (MOE); [5mC] = 5-methylcytosine; d = 2'-deoxy (DNA)

Each substance was assayed on human Factor 7 mRNA (assay: Dose-dependent antisense inhibition of human Factor 7 in HepB3 cells, lipofectin). Details: 3.125 nM, HepB3 cells, approx. 16 hours (Table 14).
Type: cell-based
Outline: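 HepB3 cells (4,000/well) lipofectin-transfected with antisense oligonucleotide at 3.125 or 6.25 up to 100 nM for ~16 h. Factor 7 mRNA measured by real-time RT-PCR with primer probe set RTS 2927, adjusted to RIBOGREEN total RNA; expressed as percent inhibition versus untreated control cells.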

Point of comparison: “422150 (antisense eG*e[5mC]*eA*dT*dG*dG*dT*dG*dA*dT*dG*d[5mC]*dT*dT*d[5mC]*dT*dG*eA*eA*eT) [compound 422150]”, “percent inhibition of Factor 7 mRNA, relative to untreated control cells” value 9%. Against it:
- 422152 (antisense eA*eT*eG*d[5mC]*dA*dT*dG*dG*dT*dG*dA*dT*dG*d[5mC]*dT*dT*d[5mC]*eT*eG*eA) [compound 422152] — higher, 18%

Same assay, conditions: 12.5 nM, HepB3 cells, approx. 16 hours (Table 14)

Point of comparison: “422152 (antisense eA*eT*eG*d[5mC]*dA*dT*dG*dG*dT*dG*dA*dT*dG*d[5mC]*dT*dT*d[5mC]*eT*eG*eA) [compound 422152]”, “percent inhibition of Factor 7 mRNA, relative to untreated control cells” value 47%. Against it:
- 422150 (antisense eG*e[5mC]*eA*dT*dG*dG*dT*dG*dA*dT*dG*d[5mC]*dT*dT*d[5mC]*dT*dG*eA*eA*eT) [compound 422150] — lower, 38%

Same assay, conditions: 25 nM, HepB3 cells, approx. 16 hours (Table 14)

Point of comparison: “422150 (antisense eG*e[5mC]*eA*dT*dG*dG*dT*dG*dA*dT*dG*d[5mC]*dT*dT*d[5mC]*dT*dG*eA*eA*eT) [compound 422150]”, “percent inhibition of Factor 7 mRNA, relative to untreated control cells” value 59%. Against it:
- 422152 (antisense eA*eT*eG*d[5mC]*dA*dT*dG*dG*dT*dG*dA*dT*dG*d[5mC]*dT*dT*d[5mC]*eT*eG*eA) [compound 422152] — higher, 67%

Same assay, conditions: 50 nM, HepB3 cells, approx. 16 hours (Table 14)

Point of comparison: “422152 (antisense eA*eT*eG*d[5mC]*dA*dT*dG*dG*dT*dG*dA*dT*dG*d[5mC]*dT*dT*d[5mC]*eT*eG*eA) [compound 422152]”, “percent inhibition of Factor 7 mRNA, relative to untreated control cells” value 83%. Against it:
- 422150 (antisense eG*e[5mC]*eA*dT*dG*dG*dT*dG*dA*dT*dG*d[5mC]*dT*dT*d[5mC]*dT*dG*eA*eA*eT) [compound 422150] — lower, 79%

Same assay, conditions: 100 nM, HepB3 cells, approx. 16 hours (Table 14)

Point of comparison: “422150 (antisense eG*e[5mC]*eA*dT*dG*dG*dT*dG*dA*dT*dG*d[5mC]*dT*dT*d[5mC]*dT*dG*eA*eA*eT) [compound 422150]”, “percent inhibition of Factor 7 mRNA, relative to untreated control cells” value 87%. Against it:
- 422152 (antisense eA*eT*eG*d[5mC]*dA*dT*dG*dG*dT*dG*dA*dT*dG*d[5mC]*dT*dT*d[5mC]*eT*eG*eA) [compound 422152] — higher, 89%

Same assay, conditions: HepB3 cells, approx. 16 hours (Table 14)

Point of comparison: “422152 (antisense eA*eT*eG*d[5mC]*dA*dT*dG*dG*dT*dG*dA*dT*dG*d[5mC]*dT*dT*d[5mC]*eT*eG*eA) [compound 422152]”, “percent inhibition of Factor 7 mRNA, relative to untreated control cells” value 29%. Against it:
- 422150 (antisense eG*e[5mC]*eA*dT*dG*dG*dT*dG*dA*dT*dG*d[5mC]*dT*dT*d[5mC]*dT*dG*eA*eA*eT) [compound 422150] — lower, 23%

What follows are substances tested on human Factor 7 mRNA (assay: Antisense inhibition of human Factor 7 mRNA in HepB3 cells, 50 nM antisense oligonucleotide, lipofectin). Details: Table 13 (microwalk), 50 nM, lipofectin, approximately 24 hours.
Type: cell-based
Outline: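 Readout is percent reduction of Factor 7 message compared with untreated cells, after correction for total RNA content quantified by RIBOGREEN®. Cultures were seeded at 4,000 cells per well and treated for about 24 hours before RNA extraction.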

Point of comparison: “422150 (antisense eG*e[5mC]*eA*dT*dG*dG*dT*dG*dA*dT*dG*d[5mC]*dT*dT*d[5mC]*dT*dG*eA*eA*eT) [compound 422150]”, “% Inhibition” value 74%. Against it:
- 422152 (antisense eA*eT*eG*d[5mC]*dA*dT*dG*dG*dT*dG*dA*dT*dG*d[5mC]*dT*dT*d[5mC]*eT*eG*eA) [compound 422152] — the same, 74%

Each substance was assayed on human Factor 7 mRNA (assay: Dose-dependent antisense inhibition of human Factor 7 in HepB3 cells, electroporation). Details: 3.125 μM, approx. 16 hours (Table 15, Example 7).
Type: cell-based
Method: (§1) The gapmers were also transfected via electroporation and their dose-dependent inhibition of human Factor 7 mRNA was measured. Cells were plated at a density of 20,000 cells per well and transfected via electroporation with 3.125 μM, 6.25 μM, 12.5 μM, 25 μM, 50 μM, and 100 μM concentrations of antisense oligonucleotide, as specified in Table 15. After a treatment period of approximately 16 hours, RNA was isolated from the cells and Factor 7 mRNA levels were measured by quantitative real-time PCR. Human Factor 7 primer probe set RTS 2927 was used to measure mRNA levels. Factor 7 mRNA levels were adjusted according to total RNA content, as measured by RIBOGREEN®. Results are presented as percent inhibition of Factor 7, relative to untreated control cells.
as §1, with “Cells were” for “The gapmers were also transfected via electroporation and their dose-dependent inhibition of human Factor 7 mRNA was measured. Cells were”, “in […]. After a” for “in Table 15. After a”, “cells and human Factor 7” for “cells and Factor 7”

Point of comparison: “422152 (antisense eA*eT*eG*d[5mC]*dA*dT*dG*dG*dT*dG*dA*dT*dG*d[5mC]*dT*dT*d[5mC]*eT*eG*eA) [compound 422152]”, “percent inhibition of Factor 7 mRNA, relative to untreated control cells” value 14%. Against it:
- 422150 (antisense eG*e[5mC]*eA*dT*dG*dG*dT*dG*dA*dT*dG*d[5mC]*dT*dT*d[5mC]*dT*dG*eA*eA*eT) [compound 422150] — higher, 17%

Same assay, conditions: 3.125 μM, approx. 16 hours (Table 16, Example 8 confirmation)

“422150 (antisense eG*e[5mC]*eA*dT*dG*dG*dT*dG*dA*dT*dG*d[5mC]*dT*dT*d[5mC]*dT*dG*eA*eA*eT) [compound 422150]” was tested, and the “percent inhibition of Factor 7 mRNA, relative to untreated control cells” value was 0%.

Same assay, conditions: 6.25 μM, approx. 16 hours (Table 15, Example 7)

Point of comparison: “422150 (antisense eG*e[5mC]*eA*dT*dG*dG*dT*dG*dA*dT*dG*d[5mC]*dT*dT*d[5mC]*dT*dG*eA*eA*eT) [compound 422150]”, “percent inhibition of Factor 7 mRNA, relative to untreated control cells” value 20%. Against it:
- 422152 (antisense eA*eT*eG*d[5mC]*dA*dT*dG*dG*dT*dG*dA*dT*dG*d[5mC]*dT*dT*d[5mC]*eT*eG*eA) [compound 422152] — higher, 22%

Same assay, conditions: 6.25 μM, approx. 16 hours (Table 16, Example 8 confirmation)

In the case of “422150 (antisense eG*e[5mC]*eA*dT*dG*dG*dT*dG*dA*dT*dG*d[5mC]*dT*dT*d[5mC]*dT*dG*eA*eA*eT) [compound 422150]”, the “percent inhibition of Factor 7 mRNA, relative to untreated control cells” value is reported as 31%.

Same assay, conditions: 12.5 μM, approx. 16 hours (Table 15, Example 7)

Point of comparison: “422152 (antisense eA*eT*eG*d[5mC]*dA*dT*dG*dG*dT*dG*dA*dT*dG*d[5mC]*dT*dT*d[5mC]*eT*eG*eA) [compound 422152]”, “percent inhibition of Factor 7 mRNA, relative to untreated control cells” value 32%. Against it:
- 422150 (antisense eG*e[5mC]*eA*dT*dG*dG*dT*dG*dA*dT*dG*d[5mC]*dT*dT*d[5mC]*dT*dG*eA*eA*eT) [compound 422150] — higher, 40%

Same assay, conditions: 12.5 μM, approx. 16 hours (Table 16, Example 8 confirmation)

In the case of “422150 (antisense eG*e[5mC]*eA*dT*dG*dG*dT*dG*dA*dT*dG*d[5mC]*dT*dT*d[5mC]*dT*dG*eA*eA*eT) [compound 422150]”, the “percent inhibition of Factor 7 mRNA, relative to untreated control cells” value is reported as 53%.

Same assay, conditions: 25 μM, approx. 16 hours (Table 15, Example 7)

Point of comparison: “422150 (antisense eG*e[5mC]*eA*dT*dG*dG*dT*dG*dA*dT*dG*d[5mC]*dT*dT*d[5mC]*dT*dG*eA*eA*eT) [compound 422150]”, “percent inhibition of Factor 7 mRNA, relative to untreated control cells” value 54%. Against it:
- 422152 (antisense eA*eT*eG*d[5mC]*dA*dT*dG*dG*dT*dG*dA*dT*dG*d[5mC]*dT*dT*d[5mC]*eT*eG*eA) [compound 422152] — lower, 44%

Same assay, conditions: 25 μM, approx. 16 hours (Table 16, Example 8 confirmation)

For “422150 (antisense eG*e[5mC]*eA*dT*dG*dG*dT*dG*dA*dT*dG*d[5mC]*dT*dT*d[5mC]*dT*dG*eA*eA*eT) [compound 422150]”, the “percent inhibition of Factor 7 mRNA, relative to untreated control cells” value was 67%.

Same assay, conditions: 50 μM, approx. 16 hours (Table 15, Example 7)

Point of comparison: “422150 (antisense eG*e[5mC]*eA*dT*dG*dG*dT*dG*dA*dT*dG*d[5mC]*dT*dT*d[5mC]*dT*dG*eA*eA*eT) [compound 422150]”, “percent inhibition of Factor 7 mRNA, relative to untreated control cells” value 68%. Against it:
- 422152 (antisense eA*eT*eG*d[5mC]*dA*dT*dG*dG*dT*dG*dA*dT*dG*d[5mC]*dT*dT*d[5mC]*eT*eG*eA) [compound 422152] — lower, 65%

Same assay, conditions: 50 μM, approx. 16 hours (Table 16, Example 8 confirmation)

With “422150 (antisense eG*e[5mC]*eA*dT*dG*dG*dT*dG*dA*dT*dG*d[5mC]*dT*dT*d[5mC]*dT*dG*eA*eA*eT) [compound 422150]” the “percent inhibition of Factor 7 mRNA, relative to untreated control cells” value was 77%.

Same assay, conditions: 100 μM, approx. 16 hours (Table 15, Example 7)

Point of comparison: “422152 (antisense eA*eT*eG*d[5mC]*dA*dT*dG*dG*dT*dG*dA*dT*dG*d[5mC]*dT*dT*d[5mC]*eT*eG*eA) [compound 422152]”, “percent inhibition of Factor 7 mRNA, relative to untreated control cells” value 76%. Against it:
- 422150 (antisense eG*e[5mC]*eA*dT*dG*dG*dT*dG*dA*dT*dG*d[5mC]*dT*dT*d[5mC]*dT*dG*eA*eA*eT) [compound 422150] — higher, 83%

Same assay, conditions: 100 μM, approx. 16 hours (Table 16, Example 8 confirmation)

For “422150 (antisense eG*e[5mC]*eA*dT*dG*dG*dT*dG*dA*dT*dG*d[5mC]*dT*dT*d[5mC]*dT*dG*eA*eA*eT) [compound 422150]”, the “percent inhibition of Factor 7 mRNA, relative to untreated control cells” value was 86%.
